Legend:
Format in all cases: in vivo
[1] = tested on: male C57BL/6 mice; test: Forced swimming test, antidepressant effect; conditions: final 4 min of 6-min session
Protocol: Forced swimming test is used to select compounds with therapeutic efficacy for depression. […] The immobility time is counted whenever the animal remained floating passively in the water without struggling except minimal movement to protrude its head above the water surface.
(§1) Nine-week-old male C57BL/6 mice weighing 20-23 g of body weight were used through this study. Experimental animals were kept in an animal breeding room with a 12 h dark/12 h light cycle and accommodated by 8 mice per cage supplied freely with water and feeding. The mice consisted of 8 animals per group were randomly allocated to the treatment groups.
(§2) Compound 2 was suspended in 10% lutrol solution and all the suspended solutions were administered orally to the mice twice daily at a volume of 5 ml/kg. The control group was treated only with 10% lutrol solution in the same manner. All the treatment of drugs or vehicle to the animals were given 1 hour before the test (n=8/group).
At the day of the experiment, the mice were acclimatized in the testing room over 60 minutes, orally given with the compound 2 or vehicle control, and received the forced swimming test. For the forced swimming test, a mouse was individually forced to swim inside an open glass cylindrical bath with height of 26 cm and diameter of 14 cm filled with water at 24±1° C. up to 16 cm high from the bottom so that the mouse tail could not reach the bottom. One hour after the mouse were orally given compound 2 and control vehicle, then the mice were exposed to forced swimming for 6 min in the water bath and their movement was recorded using a video camera system. The total duration of immobility was measured as a mean during the final 4 min of a 6-min test session and the data were statistically analyzed with one-way ANOVA followed by Tukey's HSD (Honestly Significant Difference) post hoc comparison.

[2] = tested on: Male ICR mice; test: Locomotor activity using open field test; conditions: 1.25-50 mg/kg oral, twice daily; 1 hour before the test
Protocol: The locomotor activity using open field test measured to know influence of drug treatment on activity in animals. Male ICR mice weighing 20-23 g of body weight were used throughout the study.
Experimental animals were kept in an animal breeding room with a […] cycle and accommodated by 8 mice per cage supplied freely with water and feeding. The mice consisted of 8 animals per group were randomly allocated to the treatment groups.
as §2
The open field was consisted of square arena (58 cm×58 cm) surrounded by a 30 cm height wall. […] At the start of each trial, a mouse was placed in a corner of the field and was allowed to freely move the arena and the moving trajectory for 5 min was measured. The behavior of animals was recorded and analyzed using a videotracking software (Etho Vision 3.0, Noldus Information Technology, Leesburg, Va.) attached to the ceiling above the middle of the arena.
The collected data were analyzed by one-way ANOVA followed by Tukey's HSD (Honestly Significant Difference) post hoc comparison.

[3] = tested on: Sprague-Dawley (SD) rats; test: Water immersion restraint stress (WIRS) gastric damage model; conditions: 30 mg/kg, given 1 hour before 10 hours WIRS
Protocol: The Sprague-Dawley (SD) rats weighing 200 g of body weight were deprived of food for over 24 hours and then were given with the experimental compound. After 1 hour, the rats were placed in a stress cage and immersed into water at 24° C. for 10 hours to induce WIRS
The SD rats weighing 200 g of body weight were deprived of food for 24 h and then were given with 30 mg/kg of compound 2. After 1 hour, the rats were placed in a stress cage and immersed into water for 10 hours. After WIRS for 10 hours, the rats were sacrificed under anesthesia with ether. Each stomach was isolated, soaked and fixed in 10 ml of 2% formalin solution for 10 minutes, and then opened along the greater curvature of the stomach. After spreading the stomach, stress-induced hemorrhagic lesions were examined macroscopically, and the results were shown in FIG. 2.

[4] = tested on: male C57BL/6 mice; test: Repeated restraint stress test with forced swim test as index for depression; conditions: for decrease of immobility time compared with stressed control group (control 2): forced swim test; for decrease of immobility time compared with unstressed group (control 1): no stress, forced swimming test
Protocol: To test the efficacy of compounds on a stress-induced depression a restraint stress animal model was used. After evoking depression symptoms in a mouse corresponding to a human depression by exposing a stressed condition that it was placed in a narrow space to be unable to move, whether the compounds have any anti-depression effects were tested after treatment to this animal.
as §1, with “by 5-6” for “by 8”, “of 11” for “of 8”
as §2, with “(n=11/group).” for “(n=8/group).”
Animals were subjected to restraint-stress one hour after compound 2 or 10% lutrol was administered orally. Mice were exposed to restraint stress everyday 2 hr for 14 days and received a forced swim test such as <Example 4> as an index for depression.

[5] = tested on: male C57BL/6 mice; test: Stress-induced anxiety (restraint stress), elevated plus maze (EPM); conditions: EPM 5 minutes
Protocol: To evaluate the effect of compound 2 on stress-induced anxiety, we used a restraint stress animal model. Anxiety was evoked by exposing stress that a mice was restrained to be immovable in a narrow space, and whether the compound could show anxiolytic effect after administration the animals.
When experimental animals are exposed to stress, various physiological changes occur, which can be measured through several behavioral tests. In this study, anxiety of experimental animals was evaluated by an elevated plus maze (EPM). EPM apparatus consisted of two open arms, and two closed arms which are horizontally crossed. It is designed that the cross path is located 60 cm above the floor for the animals to feel anxiety. […]
At the day of experiment, animals exposed to restraint stress after animals were acclimatized to testing room over 60 minutes, and then were orally administered with the compound. One hour after administration the oral administration of compound 2 or lutrol, experimental animals were placed at the center of EPM and the animal behaviors were recorded during total 5 minutes using a camera mounted on the ceiling and a computer program (etho vision 3.0 (Noldus Information Technology)). The collected data were expressed as % time spent in open arms and the statistical analysis was done using one-way ANOVA followed by LSD (Least significant difference) post hoc comparisons.

[6] = tested on: Male ICR mice; test: Tail suspension test (TST), antidepressant effect; conditions: twice daily, final 4 min of 6 min test, 1 h after treatment
Protocol: The effectiveness of the compound was evaluated using a tail-suspension test as in vivo method for depression. In this test immobility time of animals typically for 5-10 minutes is recorded using a manual or an automated device.
as §1, with “Male ICR” for “Nine-week-old male C57BL/6”, “28-30” for “20-23”, “throughout the” for “through this”
as §2, with “and the” for “and”, “all” for “all the”, “4” for “5”
This test was evaluated according to the method described in a previous publication [Psycopharmacology 85, 367-370, Steru et al. (1985)]. At the day of experiment, the mice were acclimatized in the testing room over 60 minutes and given with the compound, and then the test was conducted. After 1 h after drug treatment, the mice were taped with experimental adhesive tape, at approximately 1 cm from the tip of the tail. The mice were individually suspended on an experimental shelf about 58 cm above a table top by attaching the adhesive tape at the tip of the tail to the experimental shelf. And after that, total immobility time was measured for 6 min in the absence of noise. The total immobility time was measured during the final 4 min of a 6 min test session and the data were expressed as mean and analyzed by one-way ANOVA followed by Tukey's HSD (Honestly Significant Difference) post hoc comparison.

[7] = 2.5 mg/kg oral BID + restraint stress 2 hr daily for 14 days
[8] = 5 mg/kg oral BID + restraint stress 2 hr daily for 14 days

Structure (SMILES): O=C(O)c1cc(NCCc2ccc(C(F)(F)F)cc2)ccc1O [compound 2, 2-hydroxy-5-[2-(4-trifluoromethyl-phenyl)-ethylamino]-benzoic acid]
- decrease of immobility time compared with the vehicle control group ([1]; 1.25 mg/kg oral BID): 31%
- decrease of immobility time compared with the vehicle control group ([1]; 2.5 mg/kg oral BID): 34%
- decrease of immobility time compared with the vehicle control group ([1]; 5 mg/kg oral BID): 30%
- decrease of immobility time compared with the vehicle control group ([1]; 12.5 mg/kg oral BID): 34%
- locomotor activity (open field, 5 min) [2]: not different among groups
- WIRS-induced gastric lesion index [3]: definitely reduced
- decrease of immobility time compared with stressed control group (control 2) [4, 7]: 32%
- decrease of immobility time compared with unstressed group (control 1) ([4]; 2.5 mg/kg oral BID for 2 weeks): 21%
- decrease of immobility time compared with stressed control group (control 2) [4, 8]: 39%
- decrease of immobility time compared with unstressed group (control 1) ([4]; 5 mg/kg oral BID for 2 weeks): 26%
- % time spent in open arm, increase compared with the stressed group (control 2) [5, 7]: 24%
- % time spent in open arm, increase compared with the stressed group (control 2) [5, 8]: 23%
- decrease of total immobility time compared with the control group ([6]; 1.25 mg/kg oral): 46%
- decrease of total immobility time compared with the control group ([6]; 2.5 mg/kg oral): 43%
- decrease of total immobility time compared with the control group ([6]; 5 mg/kg oral): 42%
- decrease of total immobility time compared with the control group ([6]; 12.5 mg/kg oral): 38%
- decrease of total immobility time compared with the control group ([6]; 25 mg/kg oral): 54%
- decrease of total immobility time compared with the control group ([6]; 50 mg/kg oral): 57%
